Results on twelve compounds are retold here after PubChem BioAssay (NCI).

Molecules are shown by their SMILES.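 Test compounds were applied to cells in 96-well plates for 48 hours at 5 doses. GI50: concentration for 50% inhibition of growth. At the TGI there is no net growth.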

Test systems include MCF7 breast; PC-3 prostate; T-47D breast; DU-145 prostate; HS 578T breast; BT-549 breast; MDA-MB-231 breast; LXFL 529 NSCLC; HOP-18 NSCLC; M19-MEL melanoma; DLD-1 colon; DMS 273 small cell lung; DMS 114 small cell lung.
Common to all, as to experiment: growth of human tumour cells (NCI), 48 h

`COc1ccccc1N1CCN(C(=O)c2ccc(NS(=O)(=O)c3cccc4cccnc34)cc2)CC1`: the GI50 in the assay on MCF7 breast is > 49.4 µM; in the assay on PC-3 prostate it was > 100 µM; in the assay with T-47D breast, > 22.1 µM; with DU-145 prostate, > 100 µM; in the assay with HS 578T breast it was > 46.4 µM; in the assay with BT-549 breast it was > 76.5 µM. Moreover, the GI50 in the assay with MDA-MB-231 breast was > 53.6 µM. Moreover, the TGI was > 100 µM in the assay on MCF7 breast; > 100 µM with PC-3 prostate; > 100 µM in the assay on T-47D breast; > 100 µM in the assay on DU-145 prostate; 99.4 µM in the assay with HS 578T breast; > 100 µM with BT-549 breast. For the same compound, the TGI in the assay on MDA-MB-231 breast was > 100 µM.
On to `CC(C)(C)N1CC(OC(N)=O)C1`, for which the GI50 with MCF7 breast, with PC-3 prostate, in the assay on T-47D breast, in the assay with DU-145 prostate, in the assay on HS 578T breast and in the assay with BT-549 breast was > 100 µM in each case. In the assay on MDA-MB-231 breast, the GI50 was > 100 µM. Further, the TGI in the assay on MCF7 breast, with PC-3 prostate, in the assay on T-47D breast, in the assay with DU-145 prostate, with HS 578T breast and with BT-549 breast was > 100 µM each time. Besides, in the assay on MDA-MB-231 breast, the TGI was > 100 µM.
As to `O=C(O)CN(c1ccccc1)S(=O)(=O)c1ccc(Cl)cc1`, the TGI in the assay on LXFL 529 NSCLC, in the assay with HOP-18 NSCLC, in the assay on M19-MEL melanoma, with DLD-1 colon and in the assay on DMS 273 small cell lung was > 100 µM throughout.
Take `O=C1C(Cl)=C(Nc2cccc(O)c2)C(=O)N1c1cccc(Cl)c1`: the GI50 was 36 µM with MCF7 breast; 21.4 µM in the assay on PC-3 prostate; 67.2 µM in the assay with T-47D breast; 69.5 µM in the assay on DU-145 prostate; 29.3 µM in the assay on HS 578T breast; 27.3 µM in the assay with BT-549 breast. For the same compound, in the assay with MDA-MB-231 breast, the GI50 is 35.8 µM. Also, the TGI in the assay on MCF7 breast, in the assay with PC-3 prostate, in the assay with T-47D breast, in the assay on DU-145 prostate, with HS 578T breast and in the assay on BT-549 breast was > 100 µM in each case. The TGI in the assay with MDA-MB-231 breast was > 100 µM.
On to `C=CCCC(C)N(C(=O)OC(C)(C)C)S(=O)(=O)c1ccc(C)cc1` (stereo not given), for which the TGI in the assay with LXFL 529 NSCLC, in the assay on DLD-1 colon and with DMS 273 small cell lung was > 100 µM each time.
Consider `O=C(N/C(=C\c1ccc([N+](=O)[O-])cc1)c1nc2ccc(Cl)cc2[nH]1)c1ccccc1`, for which the TGI in the assay with LXFL 529 NSCLC was 70.7 µM; in the assay on M19-MEL melanoma it was > 100 µM; in the assay on DLD-1 colon, 31.3 µM; with DMS 114 small cell lung it was > 100 µM.
Consider `S=P(c1ccccc1)(c1ccccc1)C1(C2(P(=S)(c3ccccc3)c3ccccc3)CC2)CC1`, for which the TGI with LXFL 529 NSCLC, in the assay with M19-MEL melanoma, in the assay on DLD-1 colon, with DMS 114 small cell lung and in the assay with DMS 273 small cell lung was > 100 µM in each case.
As to `CCn1cc(C(=O)N/N=C/c2cccc(F)c2)c(=O)c2cc(F)c(N3CCNC(C)C3)c(F)c21` (stereo not given), the GI50 in the assay with MCF7 breast was 1.64 µM; in the assay on PC-3 prostate, 1.62 µM; in the assay on T-47D breast, 1.61 µM; with DU-145 prostate, 1.67 µM; in the assay with HS 578T breast it was 4.4 µM; in the assay with BT-549 breast it was 1.62 µM. Further, the GI50 with MDA-MB-231 breast is 1.68 µM. In addition, the TGI in the assay on MCF7 breast came out at 3.18 µM; with PC-3 prostate it was 3.09 µM; in the assay with T-47D breast, 3.25 µM; with DU-145 prostate, 3.05 µM; with HS 578T breast, 25.5 µM; in the assay with BT-549 breast, 3.05 µM. For the same compound, the TGI with MDA-MB-231 breast is 3.14 µM.
`O=C(Nc1ccc(Cl)cc1)c1cc2cc(F)ccc2cc1O`: the GI50 in the assay with MCF7 breast is 1.54 µM; in the assay on PC-3 prostate it was 1.94 µM; with T-47D breast it was 0.941 µM; with DU-145 prostate it was 2.18 µM; in the assay on HS 578T breast, 3.03 µM; in the assay with BT-549 breast, 1.35 µM. In addition, in the assay with MDA-MB-231 breast, the GI50 was 1.55 µM. For the same compound, the TGI in the assay on MCF7 breast is 6.51 µM; with PC-3 prostate it was > 100 µM; with T-47D breast, 5.36 µM; with DU-145 prostate it was > 100 µM; in the assay with HS 578T breast it was > 100 µM; in the assay on BT-549 breast, 5.12 µM. Further, in the assay with MDA-MB-231 breast, the TGI worked out at 5.29 µM.
Turning to `O=S1c2ccccc2N=C(c2ccc(Cl)cc2)CC1c1cccs1` (stereo not given), the TGI is 71.1 µM with HOP-18 NSCLC; 39 µM with M19-MEL melanoma; 24.9 µM with DLD-1 colon; 39.5 µM in the assay on DMS 114 small cell lung; 28.2 µM in the assay with DMS 273 small cell lung.
Regarding `COc1ccc(-c2csc(NC(=O)N3CCN(c4cc5c(cc4F)c(=O)c(C(=O)O)cn5C4CC4)CC3)n2)cc1`, the GI50 is 2.6 µM in the assay on MCF7 breast; 2.98 µM with PC-3 prostate; 1.57 µM in the assay with T-47D breast; 1.72 µM in the assay on DU-145 prostate; 2.94 µM in the assay on HS 578T breast; 0.616 µM in the assay with BT-549 breast. Moreover, the GI50 in the assay on MDA-MB-231 breast is 2.71 µM. Further, the TGI with MCF7 breast was > 100 µM; with PC-3 prostate, > 100 µM; in the assay on T-47D breast, > 100 µM; in the assay on DU-145 prostate, > 100 µM; in the assay on HS 578T breast, > 100 µM; in the assay on BT-549 breast, 6.64 µM. In the assay with MDA-MB-231 breast, the TGI was > 100 µM.
`CNC(=O)c1cncc(/C=C/c2c(C)cccc2C)c1`: the GI50 with MCF7 breast was > 25 µM; with PC-3 prostate, > 25 µM; with T-47D breast it was > 25 µM; in the assay on DU-145 prostate it was > 25 µM; with HS 578T breast it was 7.19 µM; in the assay with BT-549 breast it was > 25 µM. Also, the GI50 in the assay on MDA-MB-231 breast was 21.1 µM. Further, the TGI with MCF7 breast is > 25 µM; with PC-3 prostate, > 25 µM; in the assay with T-47D breast it was > 25 µM; in the assay on DU-145 prostate, > 25 µM; with HS 578T breast, 24.2 µM; with BT-549 breast it was > 25 µM. Moreover, the TGI with MDA-MB-231 breast was > 25 µM.
